Source: ChEMBL document CHEMBL1201862, “PubChem BioAssay data set” (2004)
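Dose response: 5 concentrations. Exposure: 48 h. Format: 96-well plates. Endpoint: linear interpolation; highest concentration if not reached. At the GI50, growth is halved.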 Activity calls are given as the source filed them. Rule as the data show it: active = GI50 up to about 1.1 µM and inactive = higher.

Experiments:
Assay in all cases: NCI anticancer screen, dose series, 48 h
[1] = system: OVCAR-5
[2] = system: HOP-62
[3] = system: IGROV-1
[4] = system: LOX IMVI
[5] = system: NCI-H226
[6] = system: XF498
[7] = system: SNB-75
[8] = system: OVCAR-8
[9] = system: HCT-15
[10] = system: SN12C
[11] = system: OVCAR-3
[12] = system: CCRF-CEM
[13] = system: KM12
[14] = system: SW-620
[15] = system: SR
[16] = system: KM-20L2
[17] = system: SNB-19
[18] = system: UACC-62
[19] = system: OVCAR-4
[20] = system: SK-MEL-28
[21] = system: HOP-92
[22] = system: A549
[23] = system: M14
[24] = system: SF-268
[25] = system: NCI-H460
[26] = system: RXF 393
[27] = system: HL-60
[28] = system: UACC-257
[29] = system: SK-OV-3
[30] = system: ACHN
[31] = system: RPMI-8226
[32] = system: EKVX
[33] = system: LXFL 529
[34] = system: NCI-H23
[35] = system: 786-0
[36] = system: COLO 205
[37] = system: HCT-116
[38] = system: SF-295
[39] = system: DMS-114
[40] = system: TK-10
[41] = system: SF-539
[42] = system: DLD-1
[43] = system: K562
[44] = system: HT-29
[45] = system: SK-MEL-5
[46] = system: U-251
[47] = system: M19-MEL
[48] = system: MOLT-4
[49] = system: Malme-3M
[50] = system: UO-31
[51] = system: SNB-78
[52] = system: NCI-H522
[53] = system: DMS-273
[54] = system: A498
[55] = system: SK-MEL-2
[56] = system: CAKI-1
[57] = system: HOP-18
[58] = system: HCC 2998

Measured: GI50

NC(Cc1ccccc1)C(=O)OCN1C(=O)C2C3C=CC(C2C1=O)C1C2C(=O)N(COC(=O)C(N)Cc4ccccc4)C(=O)C2C31 (stereo not given)
inactive: [1] 47 µM | [2] > 100 µM | [3] 35.6 µM | [4] 21.4 µM | [5] 46.7 µM | [6] 30.8 µM | [7] 22.9 µM | [8] 23.7 µM | [10] 22.3 µM | [11] 33 µM | [12] 21.1 µM | [13] 21.3 µM | [14] 19.5 µM | [15] 27.7 µM | [16] 28.4 µM | [17] 50.1 µM | [18] 23 µM | [19] 18.3 µM | [20] 22.9 µM | [21] 32 µM | [22] 25.9 µM | [23] 20.4 µM | [24] 25.9 µM | [25] 14.4 µM | [26] 22.5 µM | [27] 23.7 µM | [28] 28.8 µM | [29] 50.2 µM | [30] 23.1 µM | [31] 27.2 µM | [32] > 100 µM | [33] 19.4 µM | [34] 20.2 µM | [35] 21.1 µM | [36] 17.5 µM | [37] 16.3 µM | [38] 48 µM | [39] 20.9 µM | [40] 49.3 µM | [41] 22.2 µM | [42] 23 µM | [43] 25.8 µM | [44] 33.2 µM | [45] 18.3 µM | [46] 20.7 µM
17.8 µM: [9]

CC(=O)OCC(OC(C)=O)C(OC(C)=O)C(OC(C)=O)C(=O)CNn1c(-c2ccccc2)nc2ccc(Br)cc2c1=O (stereo not given)
inactive: [1] > 100 µM | [2] > 100 µM | [4] > 100 µM | [5] > 100 µM | [6] 21.2 µM | [7] > 100 µM | [47] > 100 µM | [48] 93.3 µM | [8] > 100 µM | [49] > 100 µM | [10] > 100 µM | [11] > 100 µM | [50] > 100 µM | [12] > 100 µM | [13] > 100 µM | [14] > 100 µM | [15] > 100 µM | [16] > 100 µM | [51] > 100 µM | [17] > 100 µM | [18] 83.4 µM | [19] > 100 µM | [20] > 100 µM | [22] > 100 µM | [52] 46.8 µM | [23] > 100 µM | [24] > 100 µM | [25] > 100 µM | [26] > 100 µM | [27] > 100 µM | [28] > 100 µM | [53] > 100 µM | [29] > 100 µM | [54] > 100 µM | [30] > 100 µM | [31] 64.9 µM | [32] > 100 µM | [33] > 100 µM | [34] > 100 µM | [35] > 100 µM | [55] > 100 µM | [36] > 100 µM | [56] 87.5 µM | [37] > 100 µM | [38] > 100 µM | [39] > 100 µM | [41] > 100 µM | [43] > 100 µM | [44] > 100 µM | [45] > 100 µM | [46] > 100 µM
> 100 µM: [9]

O=c1oc2c(O)c(O)c(O)c3c(=O)oc4c(O)c(O)cc1c4c23 [FLAVELLAGIC ACID]
inactive: [1] > 100 µM | [2] > 100 µM | [3] > 100 µM | [4] 18 µM | [5] 83 µM | [7] 47.6 µM | [47] 9.79 µM | [48] 25.9 µM | [8] 71.4 µM | [49] > 100 µM | [57] > 100 µM | [10] 18.6 µM | [11] 61 µM | [50] 38.4 µM | [12] 29.2 µM | [13] > 100 µM | [14] 97.7 µM | [15] > 100 µM | [16] > 100 µM | [51] > 100 µM | [17] > 100 µM | [18] 57.3 µM | [19] 16.2 µM | [58] > 100 µM | [20] > 100 µM | [21] > 100 µM | [22] > 100 µM | [52] 46.1 µM | [23] > 100 µM | [24] > 100 µM | [25] > 100 µM | [26] > 100 µM | [27] 36.6 µM | [28] > 100 µM | [53] 85.1 µM | [29] > 100 µM | [54] > 100 µM | [30] 73.1 µM | [31] > 100 µM | [32] > 100 µM | [33] 73.1 µM | [34] > 100 µM | [35] 62.8 µM | [55] > 100 µM | [36] 99.5 µM | [56] > 100 µM | [37] 89.9 µM | [38] 23.8 µM | [39] 29.7 µM | [40] > 100 µM | [41] > 100 µM | [42] > 100 µM | [43] 25.6 µM | [44] 39.5 µM | [45] > 100 µM | [46] 19.3 µM
> 100 µM: [9]
